According to the supplement of paper PMC11208160:

Experiment: recombinant UMI read abundance after kanamycin selection (control-corrected) (log10(CPM+1)); higher = more efficient recombination; extreme values may be limits of the assay; sequences stand for … in AGTGCAGAGAAAATCGGCCAGTTTTCTCTGCCTGCAGTCCGCATGCCGTGGGACCCCTTGGGTTCTAACCTGTTGCCTAGATTTATGCAGCGGACTGCCTTTCTCCCAAAGTGATAAACCGG…AGGTTGGTTTCACT; site = the 11-nt donor
Outline: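 For the IS621 bridge recombinase, a pooled Escherichia coli screen tested donor and donor-binding-loop pairs. Cells received the pair library together with a target plasmid encoding a fixed target and T7-inducible recombinase, then went onto IPTG (0.07 mM) plus kanamycin or unselected plates in duplicate. After PCR across the donor–target junction and sequencing, recombinant UMI counts were normalized to CPM, averaged, and scaled by control-derived factors. Each value is given as log10(CPM+1).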
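Further: IS621 bridge recombinase in Escherichia coli cells against a fixed T5 target plasmid.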

Sequence | recombinant UMI read abundance (log10)
CTACTAACATGGACCGGTTTTCCCGGTAATCCGTATTTGGC (site CTACTAACTAC) | 0.561
CTACTAACATGGACCGGTTTTCCCGGTAATCCGTATTTGGC (site CTACTAACTCC) | 0.31
CTACTAACATGGACCGGTTTTCCCGGTAATCCGTATTTGGC (site CTACTAACTGC) | 2.51
CTACTAACATGGACCGGTTTTCCCGGTAATCCGTATTTGGC (site CTACTAACTTC) | 1.31
CTACTAACATGGACCGGTTTTCCCGGTAATCCGTATTTGGG (site CTACTAACTAC) | 0.0214
CTACTAACATGGACCGGTTTTCCCGGTAATCCGTATTTGGG (site CTACTAACTCC) | 0.54
CTACTAACATGGACCGGTTTTCCCGGTAATCCGTATTTGGG (site CTACTAACTGC) | 0.0111
CTACTAACATGGACCGGTTTTCCCGGTAATCCGTATTTGGG (site CTACTAACTTC) | 0.0179
CTACTATCATGGACCGGTTTTCCCGGTAATCCGTATTTGCC (site CTACTATCTGG) | 2.95
CTACTATCATGGACCGGTTTTCCCGGTAATCCGTATTTGCC (site CTAGTATCTGT) | 0
CTACTATCATGGACCGGTTTTCCCGGTAATCCGTATTTGGA (site CTACTAACTTC) | 0.127
CTACTATCATGGACCGGTTTTCCCGGTAATCCGTATTTGGA (site CTACTACCTTC) | 0.00618
CTACTATCATGGACCGGTTTTCCCGGTAATCCGTATTTGGA (site CTACTAGCTTC) | 0.0148
CTACTATCATGGACCGGTTTTCCCGGTAATCCGTATTTGGA (site CTACTATCTTC) | 2.71
CTAGAATCATGGACCGGTTTTCCCGGTAATCCGTATTTGTC (site CTAGAATCTGA) | 2.71
CTAGAATCATGGACCGGTTTTCCCGGTAATCCGTATTTGTC (site CTAGTATCTGT) | 0.307
CTAGACTCATGGACCGGTTTTCCCGGTAATCCGTATTTGAC (site CTAGACTCTGT) | 3.29
CTAGACTCATGGACCGGTTTTCCCGGTAATCCGTATTTGAC (site CTAGTATCTGT) | 0
CTAGACTCATGGACCGGTTTTCCCGGTAATCCGTATTTGCT (site CTAGACTCTAG) | 3.32

Sequence | recombinant UMI read abundance (log10)
CTAGAGACATGGACCGGTTTTCCCGGTAATCCGTATTTGTC (site CTAGAGACTGA) | 2.28
CTAGCATCATGGACCGGTTTTCCCGGTAATCCGTATTTGAC (site CTAGAATCTGT) | 0.337
CTAGCATCATGGACCGGTTTTCCCGGTAATCCGTATTTGAC (site CTAGCATCTGT) | 3.04
CTAGCATCATGGACCGGTTTTCCCGGTAATCCGTATTTGAC (site CTAGGATCTGT) | 0.773
CTAGCATCATGGACCGGTTTTCCCGGTAATCCGTATTTGAC (site CTAGTATCTGT) | 2.13
CTAGCGACATGGACCGGTTTTCCCGGTAATCCGTATTTGCC (site CTAGCGACTGG) | 3.09
CTAGCTTCATGGACCGGTTTTCCCGGTAATCCGTATTTGAC (site CTAGCTTCTGT) | 2.18
CTAGCTTCATGGACCGGTTTTCCCGGTAATCCGTATTTGAC (site CTAGTATCTGT) | 0
CTAGGACCATGGACCGGTTTTCCCGGTAATCCGTATTTGAC (site CTAGGACCTGT) | 0
CTAGGACCATGGACCGGTTTTCCCGGTAATCCGTATTTGAC (site CTAGTATCTGT) | 0.00955
CTAGGATCATGGACCGGTTTTCCCGGTAATCCGTATTTGAT (site CTAGGATCTAT) | 1.95
CTAGGATCATGGACCGGTTTTCCCGGTAATCCGTATTTGAT (site CTAGTATCTGT) | 0.00727
CTAGGATCATGGACCGGTTTTCCCGGTAATCCGTATTTGGC (site CTAGGATCTGC) | 2.55
CTAGGATCATGGACCGGTTTTCCCGGTAATCCGTATTTGGC (site CTAGTATCTGT) | 0.606
CTAGGGTCATGGACCGGTTTTCCCGGTAATCCGTATTTGAC (site CTAGGGTCTGT) | 1.41
CTAGGGTCATGGACCGGTTTTCCCGGTAATCCGTATTTGAC (site CTAGTATCTGT) | 1.43
CTAGGTTCATGGACCGGTTTTCCCGGTAATCCGTATTTGCG (site CTAGGTTCTCG) | 2.47
CTAGTAGCATGGACCGGTTTTCCCGGTAATCCGTATTTGAA (site CTAGTAGCTTT) | 2.15
CTAGTAGCATGGACCGGTTTTCCCGGTAATCCGTATTTGAA (site CTAGTATCTGT) | 0

Sequence | recombinant UMI read abundance (log10)
CTAGTATCATGGACCGGTTTTCCCGGTAATCCGTATTTGAC (site ACAGTATCTGT) | 0.654
CTAGTATCATGGACCGGTTTTCCCGGTAATCCGTATTTGAC (site ATACTATCTGT) | 0.00668
CTAGTATCATGGACCGGTTTTCCCGGTAATCCGTATTTGAC (site ATAGCATCTGT) | 0
CTAGTATCATGGACCGGTTTTCCCGGTAATCCGTATTTGAC (site ATAGTAGCTGT) | 0.00849
CTAGTATCATGGACCGGTTTTCCCGGTAATCCGTATTTGAC (site ATAGTATCTGG) | 0.298
CTAGTATCATGGACCGGTTTTCCCGGTAATCCGTATTTGAC (site ATAGTATCTGT) | 0.432
CTAGTATCATGGACCGGTTTTCCCGGTAATCCGTATTTGAC (site ATAGTATCTTT) | 0.00657
CTAGTATCATGGACCGGTTTTCCCGGTAATCCGTATTTGAC (site ATAGTTTCTGT) | 0
CTAGTATCATGGACCGGTTTTCCCGGTAATCCGTATTTGAC (site ATGGTATCTGT) | 0.837
CTAGTATCATGGACCGGTTTTCCCGGTAATCCGTATTTGAC (site CAAATATCTGT) | 0
CTAGTATCATGGACCGGTTTTCCCGGTAATCCGTATTTGAC (site CAAGAATCTGT) | 0
CTAGTATCATGGACCGGTTTTCCCGGTAATCCGTATTTGAC (site CAAGTAACTGT) | 0.0563
CTAGTATCATGGACCGGTTTTCCCGGTAATCCGTATTTGAC (site CAAGTATCTCT) | 0.473
CTAGTATCATGGACCGGTTTTCCCGGTAATCCGTATTTGAC (site CAAGTATCTGA) | 0
CTAGTATCATGGACCGGTTTTCCCGGTAATCCGTATTTGAC (site CAAGTATCTGT) | 2.47
CTAGTATCATGGACCGGTTTTCCCGGTAATCCGTATTTGAC (site CAAGTCTCTGT) | 0
CTAGTATCATGGACCGGTTTTCCCGGTAATCCGTATTTGAC (site CACGTATCTGT) | 0.0166
CTAGTATCATGGACCGGTTTTCCCGGTAATCCGTATTTGAC (site CCACTATCTGT) | 0
CTAGTATCATGGACCGGTTTTCCCGGTAATCCGTATTTGAC (site CCAGCATCTGT) | 0.00896
